Data on 16 molecules can be found in patent US20240279240A1, “HETEROCYCLIC DERIVATIVES AS JANUS KINASE INHIBITORS” (CHIESI FARMACEUTICI S.P.A., priority 2021, published 2024).

One assay deals with T1, JAK 3 (Homo sapiens, UniProt P52333).
T1 sequence (P52333 1-1124): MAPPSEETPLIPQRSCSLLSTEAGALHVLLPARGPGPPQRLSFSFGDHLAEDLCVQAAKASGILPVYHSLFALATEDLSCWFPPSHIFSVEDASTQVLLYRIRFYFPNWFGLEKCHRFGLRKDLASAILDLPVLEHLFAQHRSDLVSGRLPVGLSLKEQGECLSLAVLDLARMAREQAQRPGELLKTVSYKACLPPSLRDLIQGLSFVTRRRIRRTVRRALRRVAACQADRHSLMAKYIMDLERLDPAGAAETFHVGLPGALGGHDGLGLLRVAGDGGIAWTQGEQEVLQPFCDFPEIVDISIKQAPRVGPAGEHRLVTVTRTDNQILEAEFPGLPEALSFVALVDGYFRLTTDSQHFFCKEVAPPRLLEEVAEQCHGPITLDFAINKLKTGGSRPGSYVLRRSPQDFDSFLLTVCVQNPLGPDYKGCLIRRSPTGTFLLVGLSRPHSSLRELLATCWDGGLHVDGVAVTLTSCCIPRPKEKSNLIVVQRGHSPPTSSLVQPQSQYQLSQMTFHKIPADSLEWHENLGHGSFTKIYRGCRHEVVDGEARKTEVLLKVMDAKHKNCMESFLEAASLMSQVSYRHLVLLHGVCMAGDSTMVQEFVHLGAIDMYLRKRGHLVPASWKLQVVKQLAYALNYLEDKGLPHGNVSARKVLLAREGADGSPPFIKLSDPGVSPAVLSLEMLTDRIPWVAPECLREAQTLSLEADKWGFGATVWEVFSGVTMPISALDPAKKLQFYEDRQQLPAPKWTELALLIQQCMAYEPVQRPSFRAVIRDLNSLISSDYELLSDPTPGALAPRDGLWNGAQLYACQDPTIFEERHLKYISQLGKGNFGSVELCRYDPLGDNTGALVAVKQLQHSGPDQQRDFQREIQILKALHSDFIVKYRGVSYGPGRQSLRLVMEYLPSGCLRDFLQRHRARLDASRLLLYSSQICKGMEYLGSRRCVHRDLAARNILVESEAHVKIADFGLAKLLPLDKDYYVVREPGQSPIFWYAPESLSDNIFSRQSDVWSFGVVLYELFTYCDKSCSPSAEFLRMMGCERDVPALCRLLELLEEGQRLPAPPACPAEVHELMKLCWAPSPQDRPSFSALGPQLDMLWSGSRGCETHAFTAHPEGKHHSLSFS
Kind of assay: Biochemical potency on JAK3, TR-FRET LANCE Ultra kinase assay (examples 1-99). To be noted: ATP at Km (0.2 μM), read-out: JAK3 inhibitory activity (pIC50 class) (converted). Summed up:
(§1)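 Inhibition of each JAK family kinase is measured as loss of phosphotyrosine signal on a ULight peptide, detected by Eu-PT66 antibody (final 0.5 nM) via time-resolved FRET. ATP sits near Km for each isoform. Dose–response spans 20 μM downward in 5-fold steps, 11 points.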
A general note: TR-FRET usually uses a lanthanide donor and a delayed reading to cut background.

The next assay has as its target TYK2 (Homo sapiens, UniProt P29597). Kind of assay: Biochemical potency on Tyk2, TR-FRET LANCE Ultra kinase assay (examples 1-99). To be noted: ATP at Km (12 μM), read-out: Tyk2 inhibitory activity (pIC50 class) (converted). Summed up: as §1
The target of a further assay is JAK 2 (Homo sapiens, UniProt O60674). Kind of assay: Biochemical potency on JAK2, TR-FRET LANCE Ultra kinase assay (examples 1-99). The note with it: ATP at Km (0.7 μM), read-out: JAK2 inhibitory activity (pIC50 class) (converted). In outline: as §1
Another assay has as its target JAK 1 (Homo sapiens, UniProt P23458). The assay can be described thus: Biochemical potency on JAK1, TR-FRET LANCE Ultra kinase assay (examples 1-99). The note with it: ATP at Km (20 μM), read-out: JAK1 inhibitory activity (pIC50 class) (converted). Summed up: as §1

Chain of JAK 1 (P23458 whole entry): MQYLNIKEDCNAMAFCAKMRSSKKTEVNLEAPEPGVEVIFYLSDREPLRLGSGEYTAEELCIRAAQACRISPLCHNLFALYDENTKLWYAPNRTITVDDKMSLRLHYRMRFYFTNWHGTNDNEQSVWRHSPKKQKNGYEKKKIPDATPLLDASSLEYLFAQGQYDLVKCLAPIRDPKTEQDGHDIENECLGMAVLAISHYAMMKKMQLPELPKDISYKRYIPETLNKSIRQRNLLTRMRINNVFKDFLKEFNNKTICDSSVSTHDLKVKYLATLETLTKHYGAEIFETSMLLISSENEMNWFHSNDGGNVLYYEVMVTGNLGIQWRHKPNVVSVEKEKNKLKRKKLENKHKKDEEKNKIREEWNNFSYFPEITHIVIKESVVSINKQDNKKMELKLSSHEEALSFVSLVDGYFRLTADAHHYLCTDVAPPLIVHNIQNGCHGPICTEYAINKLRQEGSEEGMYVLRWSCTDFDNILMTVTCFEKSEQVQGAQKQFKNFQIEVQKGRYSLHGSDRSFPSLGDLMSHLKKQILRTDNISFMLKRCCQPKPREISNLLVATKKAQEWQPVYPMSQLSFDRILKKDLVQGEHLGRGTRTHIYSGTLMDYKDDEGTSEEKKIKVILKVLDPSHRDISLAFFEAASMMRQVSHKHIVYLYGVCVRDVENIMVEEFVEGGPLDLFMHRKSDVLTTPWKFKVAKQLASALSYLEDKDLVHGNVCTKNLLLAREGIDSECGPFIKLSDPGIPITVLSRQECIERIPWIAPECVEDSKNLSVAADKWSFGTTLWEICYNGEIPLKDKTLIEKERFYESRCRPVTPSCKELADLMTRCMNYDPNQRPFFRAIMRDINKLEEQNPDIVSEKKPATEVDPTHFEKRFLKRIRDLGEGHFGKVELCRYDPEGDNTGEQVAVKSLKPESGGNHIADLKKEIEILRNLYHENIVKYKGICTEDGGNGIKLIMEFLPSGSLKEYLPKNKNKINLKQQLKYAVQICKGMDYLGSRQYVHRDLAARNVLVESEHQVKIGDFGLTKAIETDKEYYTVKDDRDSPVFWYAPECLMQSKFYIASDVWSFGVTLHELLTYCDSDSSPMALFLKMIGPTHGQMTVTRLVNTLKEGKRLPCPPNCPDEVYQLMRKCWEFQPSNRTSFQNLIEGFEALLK
Chain of JAK 2 (O60674 whole entry): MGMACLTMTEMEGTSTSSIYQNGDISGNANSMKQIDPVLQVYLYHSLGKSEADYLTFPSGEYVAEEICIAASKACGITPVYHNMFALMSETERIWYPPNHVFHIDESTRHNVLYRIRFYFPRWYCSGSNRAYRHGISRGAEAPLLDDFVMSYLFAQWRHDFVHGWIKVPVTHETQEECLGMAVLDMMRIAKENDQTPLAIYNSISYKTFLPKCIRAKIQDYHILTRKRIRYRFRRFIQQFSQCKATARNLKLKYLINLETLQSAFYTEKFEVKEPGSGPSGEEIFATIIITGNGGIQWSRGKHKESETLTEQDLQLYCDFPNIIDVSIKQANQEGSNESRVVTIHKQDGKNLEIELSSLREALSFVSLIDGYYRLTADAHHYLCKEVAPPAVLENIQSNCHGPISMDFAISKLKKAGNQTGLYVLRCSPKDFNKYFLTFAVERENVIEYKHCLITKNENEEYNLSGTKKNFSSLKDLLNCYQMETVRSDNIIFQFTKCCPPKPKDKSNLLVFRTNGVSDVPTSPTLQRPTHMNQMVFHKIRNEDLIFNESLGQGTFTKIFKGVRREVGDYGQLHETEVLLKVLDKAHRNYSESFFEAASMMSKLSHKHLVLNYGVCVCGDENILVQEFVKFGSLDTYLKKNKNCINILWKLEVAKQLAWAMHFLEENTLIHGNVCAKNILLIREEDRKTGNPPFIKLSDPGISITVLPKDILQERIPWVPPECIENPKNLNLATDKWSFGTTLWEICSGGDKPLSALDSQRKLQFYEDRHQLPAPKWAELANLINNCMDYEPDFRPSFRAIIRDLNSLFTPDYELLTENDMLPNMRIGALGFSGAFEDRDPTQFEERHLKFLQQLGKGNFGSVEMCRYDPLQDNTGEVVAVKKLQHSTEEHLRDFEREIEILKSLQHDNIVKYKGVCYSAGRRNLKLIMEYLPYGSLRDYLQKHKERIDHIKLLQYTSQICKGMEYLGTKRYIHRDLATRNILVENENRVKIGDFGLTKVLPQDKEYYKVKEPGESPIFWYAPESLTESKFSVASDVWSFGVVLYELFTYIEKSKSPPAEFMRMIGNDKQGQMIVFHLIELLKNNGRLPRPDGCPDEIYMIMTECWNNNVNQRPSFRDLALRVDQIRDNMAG
Chain of TYK2 (P29597 whole entry): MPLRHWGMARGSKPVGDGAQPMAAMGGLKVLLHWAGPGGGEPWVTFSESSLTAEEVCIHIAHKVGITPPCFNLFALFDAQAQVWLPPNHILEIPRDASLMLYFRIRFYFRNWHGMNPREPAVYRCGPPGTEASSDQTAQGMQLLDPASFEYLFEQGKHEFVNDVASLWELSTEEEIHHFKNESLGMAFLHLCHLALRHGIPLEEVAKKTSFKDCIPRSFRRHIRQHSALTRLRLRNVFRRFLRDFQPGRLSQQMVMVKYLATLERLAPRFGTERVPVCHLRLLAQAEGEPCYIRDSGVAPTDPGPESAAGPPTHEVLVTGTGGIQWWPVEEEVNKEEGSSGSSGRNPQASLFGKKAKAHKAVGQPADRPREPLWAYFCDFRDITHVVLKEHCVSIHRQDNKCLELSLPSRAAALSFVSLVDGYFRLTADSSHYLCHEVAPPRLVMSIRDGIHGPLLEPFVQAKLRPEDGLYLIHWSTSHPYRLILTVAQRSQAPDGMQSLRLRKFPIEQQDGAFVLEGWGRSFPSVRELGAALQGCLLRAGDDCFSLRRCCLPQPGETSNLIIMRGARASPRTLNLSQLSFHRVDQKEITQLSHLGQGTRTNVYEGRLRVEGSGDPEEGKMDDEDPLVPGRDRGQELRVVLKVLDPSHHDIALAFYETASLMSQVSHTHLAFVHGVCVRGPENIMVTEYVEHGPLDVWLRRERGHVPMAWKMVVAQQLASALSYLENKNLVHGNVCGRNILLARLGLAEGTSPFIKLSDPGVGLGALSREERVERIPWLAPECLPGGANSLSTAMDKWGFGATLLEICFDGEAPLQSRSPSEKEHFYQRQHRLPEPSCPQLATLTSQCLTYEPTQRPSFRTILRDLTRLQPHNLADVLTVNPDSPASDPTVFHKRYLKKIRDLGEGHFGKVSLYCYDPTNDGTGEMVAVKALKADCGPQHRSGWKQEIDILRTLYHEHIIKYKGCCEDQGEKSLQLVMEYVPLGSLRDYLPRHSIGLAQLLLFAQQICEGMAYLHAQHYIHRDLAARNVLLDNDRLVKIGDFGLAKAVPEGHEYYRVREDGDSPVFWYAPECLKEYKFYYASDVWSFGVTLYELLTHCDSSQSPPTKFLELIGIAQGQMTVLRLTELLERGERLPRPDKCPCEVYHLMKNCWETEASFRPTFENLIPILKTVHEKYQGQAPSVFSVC

Regarding `Cc1nn(-c2cc(SC3CCOCC3)ccc2OC(F)F)c2cc(-c3cnn4cccnc34)ncc12` [Example 72, 1-(2-(difluoromethoxy)-5-((tetrahydro-2H-pyran-4-yl)thio)phenyl)-3-methyl-6-(pyrazolo[1,5-a]pyrimidin-3-yl)-1H-pyrazolo[4,3-c]pyridine], the IC50 is at most 5.01 nM at JAK 3, over 50.1 nM on TYK2, 5.01 to 50.1 nM on JAK 2 and 5.01 to 50.1 nM at JAK 1.

Regarding `Cc1nn(-c2cc(SC3COC3)ccc2OC(F)F)c2cc(-c3cnn4cccnc34)ncc12` [Example 73, 1-(2-(difluoromethoxy)-5-(oxetan-3-ylthio)phenyl)-3-methyl-6-(pyrazolo[1,5-a]pyrimidin-3-yl)-1H-pyrazolo[4,3-c]pyridine], the IC50 on JAK 3 was at most 5.01 nM; at TYK2, 5.01 to 50.1 nM; on JAK 2, at most 5.01 nM; at JAK 1, at most 5.01 nM.

As for `Cc1nn(-c2cc(SC3CCNCC3)ccc2OC(F)F)c2cc(-c3cnn4cccnc34)ncc12` [Example 74, 1-(2-(difluoromethoxy)-5-(piperidin-4-ylthio)phenyl)-3-methyl-6-(pyrazolo[1,5-a]pyrimidin-3-yl)-1H-pyrazolo[4,3-c]pyridine], the IC50 on JAK 3 was 5.01 to 50.1 nM; at TYK2 it was over 50.1 nM; on JAK 2 it was 5.01 to 50.1 nM; on JAK 1, over 50.1 nM.

Regarding `CC(=O)N1CCC(Sc2ccc(OC(F)F)c(-n3nc(C)c4cnc(-c5cnn6cccnc56)cc43)c2)CC1` [Example 75, 1-(4-((4-(difluoromethoxy)-3-(3-methyl-6-(pyrazolo[1,5-a]pyrimidin-3-yl)-1H-pyrazolo[4,3-c]pyridin-1-yl)phenyl)thio)piperidin-1-yl)ethan-1-one], the IC50 was 5.01 to 50.1 nM at JAK 3, over 50.1 nM at TYK2, 5.01 to 50.1 nM at JAK 2 and 5.01 to 50.1 nM on JAK 1.

For `NC1CN(Cc2nn(-c3cc(Cl)ccc3OC(F)F)c3cc(-c4cnn5cccnc45)ncc23)C1` [Example 76, 1-((1-(5-chloro-2-(difluoromethoxy)phenyl)-6-(pyrazolo[1,5-a]pyrimidin-3-yl)-1H-pyrazolo[4,3-c]pyridin-3-yl)methyl)azetidin-3-amine], the IC50 on JAK 3 is 5.01 to 50.1 nM; at TYK2 it was over 50.1 nM; on JAK 2 it was 5.01 to 50.1 nM; on JAK 1 it was 5.01 to 50.1 nM.

On to `COc1ccc(Cl)cc1-n1nc(C(=O)N[C@H]2C[C@H](N)C2)c2cnc(-c3cnn4cccnc34)cc21` [Example 77, N-((1r,3r)-3-aminocyclobutyl)-1-(5-chloro-2-methoxyphenyl)-6-(pyrazolo[1,5-a]pyrimidin-3-yl)-1H-pyrazolo[4,3-c]pyridine-3-carboxamide], for which the IC50 at JAK 3, at TYK2, on JAK 2 and on JAK 1 was 5.01 to 50.1 nM in each case.

With `CNC(=O)CN(C)[C@H]1C[C@H](NC(=O)c2nn(-c3cc(Cl)ccc3OC)c3cc(-c4cnn5cccnc45)ncc23)C1` [Example 78, 1-(5-chloro-2-methoxyphenyl)-N-((1r,3r)-3-(methyl(2-(methylamino)-2-oxoethyl)amino)cyclobutyl)-6-(pyrazolo[1,5-a]pyrimidin-3-yl)-1H-pyrazolo[4,3-c]pyridine-3-carboxamide], the IC50 on JAK 3 was 5.01 to 50.1 nM; at TYK2 it was over 50.1 nM; at JAK 2 it was 5.01 to 50.1 nM; on JAK 1, 5.01 to 50.1 nM.

For the molecule `COc1ccc(Cl)cc1-n1nc(C(=O)N[C@H]2C[C@H](N3CCOCC3)C2)c2cnc(-c3cnn4cccnc34)cc21` [Example 79, 1-(5-chloro-2-methoxyphenyl)-N-((1r,3r)-3-morpholinocyclobutyl)-6-(pyrazolo[1,5-a]pyrimidin-3-yl)-1H-pyrazolo[4,3-c]pyridine-3-carboxamide], the IC50 on JAK 3 is 5.01 to 50.1 nM; on TYK2, over 50.1 nM; at JAK 2, 5.01 to 50.1 nM; on JAK 1 it was 5.01 to 50.1 nM.

`COc1ccc(Cl)cc1-n1nc(C(=O)N[C@H]2C[C@H](N(C)C)C2)c2cnc(-c3cnn4cccnc34)cc21` [Example 80, 1-(5-chloro-2-methoxyphenyl)-N-((1r,3r)-3-(dimethylamino)cyclobutyl)-6-(pyrazolo[1,5-a]pyrimidin-3-yl)-1H-pyrazolo[4,3-c]pyridine-3-carboxamide]: the IC50 at JAK 3, on TYK2, at JAK 2 and on JAK 1 was 5.01 to 50.1 nM each time.

For the molecule `N[C@H]1C[C@@H](NC(=O)c2nn(-c3cc(Cl)ccc3OC(F)F)c3cc(-c4cnn5cccnc45)ncc23)C1` [Example 81, N-((1s,3s)-3-aminocyclobutyl)-1-(5-chloro-2-(difluoromethoxy)phenyl)-6-(pyrazolo[1,5-a]pyrimidin-3-yl)-1H-pyrazolo[4,3-c]pyridine-3-carboxamide], the IC50 at JAK 3 was 5.01 to 50.1 nM; at TYK2, over 50.1 nM; on JAK 2 it was over 50.1 nM; at JAK 1, 5.01 to 50.1 nM.

In the case of `COc1ccc(S(C)(=O)=O)cc1-n1nc(C(=O)NCCN(C)C)c2cnc(-c3cnn4cccnc34)cc21` [Example 82, N-(2-(dimethylamino)ethyl)-1-(2-methoxy-5-(methylsulfonyl)phenyl)-6-(pyrazolo[1,5-a]pyrimidin-3-yl)-1H-pyrazolo[4,3-c]pyridine-3-carboxamide], the IC50 at JAK 3 was 5.01 to 50.1 nM; at TYK2 it was over 50.1 nM; at JAK 2 it was 5.01 to 50.1 nM; on JAK 1, 5.01 to 50.1 nM.

With `COc1ccc(S(C)(=O)=O)cc1-n1nc(C(=O)NCCCN(C)C)c2cnc(-c3cnn4cccnc34)cc21` [Example 83, N-(3-(dimethylamino)propyl)-1-(2-methoxy-5-(methylsulfonyl)phenyl)-6-(pyrazolo[1,5-a]pyrimidin-3-yl)-1H-pyrazolo[4,3-c]pyridine-3-carboxamide], the IC50 on JAK 3 is 5.01 to 50.1 nM; at TYK2, over 50.1 nM; at JAK 2, 5.01 to 50.1 nM; at JAK 1, 5.01 to 50.1 nM.

`COc1ccc(S(C)(=O)=O)cc1-n1nc(C(=O)NCCCN2CCOCC2)c2cnc(-c3cnn4cccnc34)cc21` [Example 84, 1-(2-methoxy-5-(methylsulfonyl)phenyl)-N-(3-morpholinopropyl)-6-(pyrazolo[1,5-a]pyrimidin-3-yl)-1H-pyrazolo[4,3-c]pyridine-3-carboxamide]: the IC50 was 5.01 to 50.1 nM on JAK 3, over 50.1 nM at TYK2, 5.01 to 50.1 nM on JAK 2 and 5.01 to 50.1 nM at JAK 1.

Take `CNc1nn(-c2cc(S(C)(=O)=O)ccc2OC)c2cc(-c3cnn4cccnc34)ncc12` [Example 85, 1-(2-methoxy-5-(methylsulfonyl)phenyl)-N-methyl-6-(pyrazolo[1,5-a]pyrimidin-3-yl)-1H-pyrazolo[4,3-c]pyridin-3-amine]: the IC50 is 5.01 to 50.1 nM at JAK 3, over 50.1 nM on TYK2, at most 5.01 nM at JAK 2 and over 50.1 nM on JAK 1.

As to `COc1ccc(NS(C)(=O)=O)cc1-n1nc(NCCN(C)C)c2cnc(-c3cnn4cccnc34)cc21` [Example 86, N-(3-(3-((2-(dimethylamino)ethyl)amino)-6-(pyrazolo[1,5-a]pyrimidin-3-yl)-1H-pyrazolo[4,3-c]pyridin-1-yl)-4-methoxyphenyl)methanesulfonamide], the IC50 at JAK 3 was 5.01 to 50.1 nM; at TYK2 it was over 50.1 nM; on JAK 2 it was 5.01 to 50.1 nM; on JAK 1, over 50.1 nM.

For `CNCC(=O)Nc1nn(-c2cc(Cl)ccc2OC)c2cc(-c3cnn4cccnc34)ncc12` [Example 87, N-(1-(5-chloro-2-methoxyphenyl)-6-(pyrazolo[1,5-a]pyrimidin-3-yl)-1H-pyrazolo[4,3-c]pyridin-3-yl)-2-(methylamino)acetamide], the IC50 on JAK 3 is 5.01 to 50.1 nM; on TYK2, 5.01 to 50.1 nM; on JAK 2 it was at most 5.01 nM; on JAK 1 it was 5.01 to 50.1 nM.
